In patent US20140031278A1, “Novel Glucagon Analogues” (NOVO NORDISK A/S, priority 2011, published 2014):
pEC50: −log10 of the molar value. *1 amine or outer side, *2 acyl side, *3 side chain or, on linkers, in order; H or OH if unused. Where a SMILES comes first, the peptide text is derived from it. Side-chain parts run from the residue outwards. γGlu = O=C(O)[C@H](CCC(=O)[*:2])N[*:1]

biological target: T1, glucagon receptor (Homo sapiens, UniProt P47871); assay: Assay (I) Glucagon activity (cAMP biosensor, FLIPR); type: cell-based; settings: HEK-293 cells with cloned glucagon receptor and cAMP biosensor; end point after 6 minutes
T1 construct: expressed in transfected cells
Method: The glucagon receptor was cloned into HEK-293 cells having a membrane bound cAMP biosensor (ACTOne™). The cells (14000 per well) were incubated (37° C., 5% CO2) overnight in 384-well plates. Next day the cells were loaded with a calcium responsive dye that only distributed into the cytoplasm. Probenecid, an inhibitor of the organic anion transporter, was added to prevent the dye from leaving the cell. A PDE inhibitor was added to prevent formatted cAMP from being degraded, The plates were placed into a […] and the glucagon analogues were added. End point data were collected after 6 minutes. An increase in intracellular cAMP was proportional to an increased in calcium concentrations in the cytoplasm. When calcium was bound the dry a fluorescence signal was generated. EC50-values were calculated in Prism5.

T1 sequence (P47871 26-477): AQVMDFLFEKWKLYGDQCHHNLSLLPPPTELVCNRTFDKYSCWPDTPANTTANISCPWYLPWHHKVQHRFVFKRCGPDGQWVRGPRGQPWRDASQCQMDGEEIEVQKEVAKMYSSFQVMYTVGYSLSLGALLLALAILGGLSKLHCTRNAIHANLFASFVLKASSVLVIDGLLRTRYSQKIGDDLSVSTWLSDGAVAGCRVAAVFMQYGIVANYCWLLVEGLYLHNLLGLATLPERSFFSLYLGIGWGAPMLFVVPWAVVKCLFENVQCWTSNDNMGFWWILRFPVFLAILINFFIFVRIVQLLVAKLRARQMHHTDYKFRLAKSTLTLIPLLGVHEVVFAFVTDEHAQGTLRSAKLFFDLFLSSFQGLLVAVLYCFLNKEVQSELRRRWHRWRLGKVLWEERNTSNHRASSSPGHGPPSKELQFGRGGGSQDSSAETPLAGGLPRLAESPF

Structure (SMILES)	pEC50
CC(C)C[C@H](NC(=O)[C@H](Cc1ccc(O)cc1)NC(=O)[C@H](CCCCN)NC(=O)[C@H](CO)NC(=O)[C@H](Cc1ccc(O)cc1)NC(=O)[C@H](CC(=O)O)NC(=O)[C@H](CO)NC(=O)[C@@H](NC(=O)[C@H](Cc1ccccc1)NC(=O)[C@@H](NC(=O)CNC(=O)[C@H](Cc1c[nH]cn1)NC(=O)[C@H](CO)NC(=O)[C@@H](N)Cc1c[nH]cn1)[C@@H](C)O)[C@@H](C)O)C(=O)N[C@@H](CCC(=O)O)C(=O)N[C@@H](CO)C(=O)N[C@@H](CCCNC(=N)N)C(=O)N[C@@H](CCCNC(=N)N)C(=O)N[C@@H](C)C(=O)N[C@@H](C)C(=O)N[C@@H](CC(=O)O)C(=O)N[C@@H](Cc1ccccc1)C(=O)N[C@H](C(=O)N[C@@H](CCCCNC(=O)CC[C@H](NC(=O)CC[C@H](NC(=O)CC[C@H](NC(=O)CC[C@H](N)C(=O)O)C(=O)O)C(=O)O)C(=O)O)C(=O)N[C@@H](Cc1c[nH]c2ccccc12)C(=O)N[C@@H](CC(C)C)C(=O)N[C@@H](CC(C)C)C(=O)N[C@@H](CO)C(=O)N[C@H](C(=O)O)[C@@H](C)O)C(C)C [Example 5, N^ε24-[(4S)-4-[[(4S)-4-[[(4S)-4-[[(4S)-4-amino-4-carboxybutanoyl]amino]-4-carboxybutanoyl]amino]-4-carboxybutanoyl]amino]-4-carboxybutanoyl]-[His3,Glu15,Ala20,Lys24,Leu27,Ser28]-Glucagon] (H-HSHGTFTSDYSKYLESRRAADFVK([γGlu-γGlu-γGlu-γGlu])WLLST-OH)	10.25
CC(C)C[C@H](NC(=O)[C@H](Cc1ccc(O)cc1)NC(=O)[C@H](CCCNC(=N)N)NC(=O)[C@H](CO)NC(=O)[C@H](Cc1ccc(O)cc1)NC(=O)[C@H](CC(=O)O)NC(=O)[C@H](CO)NC(=O)[C@@H](NC(=O)[C@H](Cc1ccccc1)NC(=O)[C@@H](NC(=O)CNC(=O)[C@H](Cc1c[nH]cn1)NC(=O)[C@H](CO)NC(=O)[C@@H](N)Cc1c[nH]cn1)[C@@H](C)O)[C@@H](C)O)C(=O)N[C@@H](CCC(=O)O)C(=O)N[C@@H](CO)C(=O)N[C@@H](CCCNC(=N)N)C(=O)N[C@@H](CCCNC(=N)N)C(=O)N[C@@H](C)C(=O)N[C@@H](C)C(=O)N[C@@H](CC(=O)O)C(=O)N[C@@H](Cc1ccccc1)C(=O)N[C@H](C(=O)N[C@@H](CCCCNC(=O)CC[C@H](NC(=O)CC[C@H](NC(=O)CC[C@H](NC(=O)CC[C@H](N)C(=O)O)C(=O)O)C(=O)O)C(=O)O)C(=O)N[C@@H](Cc1c[nH]c2ccccc12)C(=O)N[C@@H](CC(C)C)C(=O)N[C@@H](CC(C)C)C(=O)N[C@@H](CO)C(=O)N[C@H](C(=O)O)[C@@H](C)O)C(C)C [Example 6, N^ε24-[(4S)-4-[[(4S)-4-[[(4S)-4-[[(4S)-4-amino-4-carboxybutanoyl]amino]-4-carboxybutanoyl]amino]-4-carboxybutanoyl]amino]-4-carboxybutanoyl]-[His3,Arg12,Glu15,Ala20,Lys24,Leu27,Ser28]-Glucagon] (H-HSHGTFTSDYSRYLESRRAADFVK([γGlu-γGlu-γGlu-γGlu])WLLST-OH)	10.10
CC[C@H](C)[C@H](NC(=O)[C@H](CC(=O)O)NC(=O)[C@H](CC(C)C)NC(=O)[C@H](Cc1ccc(O)cc1)NC(=O)[C@H](CCCNC(=N)N)NC(=O)[C@H](CO)NC(=O)[C@H](Cc1ccc(O)cc1)NC(=O)[C@H](CC(=O)O)NC(=O)[C@H](CO)NC(=O)[C@@H](NC(=O)[C@H](Cc1ccccc1)NC(=O)[C@@H](NC(=O)CNC(=O)[C@H](Cc1c[nH]cn1)NC(=O)[C@H](CO)NC(=O)[C@@H](N)Cc1c[nH]cn1)[C@@H](C)O)[C@@H](C)O)C(=O)N[C@@H](CCCNC(=N)N)C(=O)N[C@@H](CCCNC(=N)N)C(=O)N[C@@H](C)C(=O)N[C@@H](C)C(=O)N[C@@H](CC(=O)O)C(=O)N[C@@H](Cc1ccccc1)C(=O)N[C@H](C(=O)N[C@@H](CCCCNC(=O)CC[C@H](NC(=O)CC[C@H](NC(=O)CC[C@H](NC(=O)CC[C@H](N)C(=O)O)C(=O)O)C(=O)O)C(=O)O)C(=O)N[C@@H](Cc1c[nH]c2ccccc12)C(=O)N[C@@H](CC(C)C)C(=O)N[C@@H](CC(C)C)C(=O)N[C@@H](CO)C(=O)N[C@H](C(=O)O)[C@@H](C)O)C(C)C [Example 8, N^ε24-[(4S)-4-[[(4S)-4-[[(4S)-4-[[(4S)-4-amino-4-carboxybutanoyl]amino]-4-carboxybutanoyl]amino]-4-carboxybutanoyl]amino]-4-carboxybutanoyl]-[His3,Arg12,Ile16,Ala20,Lys24,Leu27,Ser28]-Glucagon] (H-HSHGTFTSDYSRYLDIRRAADFVK([γGlu-γGlu-γGlu-γGlu])WLLST-OH)	10.57
CC(C)C[C@H](NC(=O)[C@H](Cc1c[nH]c2ccccc12)NC(=O)[C@H](CCCCNC(=O)CC[C@H](NC(=O)CC[C@H](NC(=O)CC[C@H](NC(=O)CC[C@H](N)C(=O)O)C(=O)O)C(=O)O)C(=O)O)NC(=O)[C@@H](NC(=O)[C@H](Cc1ccccc1)NC(=O)[C@H](CC(=O)O)NC(=O)[C@H](C)NC(=O)[C@H](C)NC(=O)[C@H](CCCNC(=N)N)NC(=O)[C@H](CCCNC(=N)N)NC(=O)[C@@H](NC(=O)[C@H](CC(=O)O)NC(=O)[C@H](CC(C)C)NC(=O)[C@H](Cc1ccc(O)cc1)NC(=O)[C@H](CCCNC(=N)N)NC(=O)[C@H](CO)NC(=O)[C@H](Cc1ccc(O)cc1)NC(=O)[C@H](CC(=O)O)NC(=O)[C@H](CO)NC(=O)[C@@H](NC(=O)[C@H](Cc1ccccc1)NC(=O)[C@@H](NC(=O)CNC(=O)[C@H](Cc1c[nH]cn1)NC(=O)[C@H](CO)NC(=O)[C@@H](N)Cc1c[nH]cn1)[C@@H](C)O)[C@@H](C)O)[C@@H](C)O)C(C)C)C(=O)N[C@@H](CC(C)C)C(=O)N[C@@H](CO)C(=O)N[C@H](C(=O)O)[C@@H](C)O [Example 9, N^ε24-[(4S)-4-[[(4S)-4-[[(4S)-4-[[(4S)-4-amino-4-carboxybutanoyl]amino]-4-carboxybutanoyl]amino]-4-carboxybutanoyl]amino]-4-carboxybutanoyl]-[His3,Arg12,Thr16,Ala20,Lys24,Leu27,Ser28]-Glucagon] (H-HSHGTFTSDYSRYLDTRRAADFVK([γGlu-γGlu-γGlu-γGlu])WLLST-OH)	10.43

Compounds with a higher pEC50, results first:

pEC50	Structure (SMILES)
10.61	CC(C)C[C@H](NC(=O)[C@H](Cc1c[nH]c2ccccc12)NC(=O)[C@H](CCCCNC(=O)CC[C@H](NC(=O)CC[C@H](NC(=O)CC[C@H](NC(=O)CC[C@H](N)C(=O)O)C(=O)O)C(=O)O)C(=O)O)NC(=O)[C@@H](NC(=O)[C@H](Cc1ccccc1)NC(=O)[C@H](CC(=O)O)NC(=O)[C@H](C)NC(=O)[C@H](C)NC(=O)[C@H](CCCNC(=N)N)NC(=O)[C@H](CCCNC(=N)N)NC(=O)[C@@H](NC(=O)[C@H](CC(=O)O)NC(=O)[C@H](CC(C)C)NC(=O)[C@H](Cc1ccc(O)cc1)NC(=O)[C@H](CCCCN)NC(=O)[C@H](CO)NC(=O)[C@H](Cc1ccc(O)cc1)NC(=O)[C@H](CC(=O)O)NC(=O)[C@H](CO)NC(=O)[C@@H](NC(=O)[C@H](Cc1ccccc1)NC(=O)[C@@H](NC(=O)CNC(=O)[C@H](Cc1c[nH]cn1)NC(=O)[C@H](CO)NC(=O)[C@@H](N)Cc1c[nH]cn1)[C@@H](C)O)[C@@H](C)O)[C@@H](C)O)C(C)C)C(=O)N[C@@H](CC(C)C)C(=O)N[C@@H](CO)C(=O)N[C@H](C(=O)O)[C@@H](C)O [Example 7, N^ε24-[(4S)-4-[[(4S)-4-[[(4S)-4-[[(4S)-4-amino-4-carboxybutanoyl]amino]-4-carboxybutanoyl]amino]-4-carboxybutanoyl]amino]-4-carboxybutanoyl]-[His3,Thr16,Ala20,Lys24,Leu27,Ser28]-Glucagon] (H-HSHGTFTSDYSKYLDTRRAADFVK([γGlu-γGlu-γGlu-γGlu])WLLST-OH)
10.84	CC(=O)N[C@@H](CCC(=O)N[C@@H](CCC(=O)N[C@@H](CCC(=O)N[C@@H](CCC(=O)NCCCC[C@H](NC(=O)[C@@H](NC(=O)[C@H](Cc1ccccc1)NC(=O)[C@H](CC(=O)O)NC(=O)[C@H](C)NC(=O)[C@H](C)NC(=O)[C@H](CCCNC(=N)N)NC(=O)[C@H](CCCNC(=N)N)NC(=O)[C@H](CO)NC(=O)[C@H](CC(=O)O)NC(=O)[C@H](CC(C)C)NC(=O)[C@H](Cc1ccc(O)cc1)NC(=O)[C@H](CCCCN)NC(=O)[C@H](CO)NC(=O)[C@H](Cc1ccc(O)cc1)NC(=O)[C@H](CC(=O)O)NC(=O)[C@H](CO)NC(=O)[C@@H](NC(=O)[C@H](Cc1ccccc1)NC(=O)[C@@H](NC(=O)CNC(=O)[C@H](Cc1c[nH]cn1)NC(=O)[C@H](CO)NC(=O)[C@@H](N)Cc1c[nH]cn1)[C@@H](C)O)[C@@H](C)O)C(C)C)C(=O)N[C@@H](Cc1c[nH]c2ccccc12)C(=O)N[C@@H](CC(C)C)C(=O)N[C@@H](CC(C)C)C(=O)N[C@@H](CO)C(=O)N[C@H](C(=O)O)[C@@H](C)O)C(=O)O)C(=O)O)C(=O)O)C(=O)O [Example 4, N^ε24-[(4S)-4-[[(4S)-4-[[(4S)-4-[[(4S)-4-acetamido-4-carboxybutanoyl]amino]-4-carboxybutanoyl]amino]-4-carboxybutanoyl]amino]-4-carboxybutanoyl]-[His3,Ala20,Lys24,Leu27,Ser28]-Glucagon] (H-HSHGTFTSDYSKYLDSRRAADFVK([γGlu-γGlu-γGlu-γGlu-Ac])WLLST-OH)
10.98	CC(=O)N[C@@H](CCC(=O)N[C@@H](CCC(=O)N[C@@H](CCC(=O)N[C@@H](CCC(=O)NCCCC[C@H](NC(=O)[C@@H](NC(=O)[C@H](Cc1ccccc1)NC(=O)[C@H](CC(=O)O)NC(=O)[C@H](CCC(N)=O)NC(=O)[C@H](C)NC(=O)[C@H](CCCNC(=N)N)NC(=O)[C@H](CCCNC(=N)N)NC(=O)[C@H](CO)NC(=O)[C@H](CC(=O)O)NC(=O)[C@H](CC(C)C)NC(=O)[C@H](Cc1ccc(O)cc1)NC(=O)[C@H](CCCCN)NC(=O)[C@H](CO)NC(=O)[C@H](Cc1ccc(O)cc1)NC(=O)[C@H](CC(=O)O)NC(=O)[C@H](CO)NC(=O)[C@@H](NC(=O)[C@H](Cc1ccccc1)NC(=O)[C@@H](NC(=O)CNC(=O)[C@H](Cc1c[nH]cn1)NC(=O)[C@H](CO)NC(=O)[C@@H](N)Cc1c[nH]cn1)[C@@H](C)O)[C@@H](C)O)C(C)C)C(=O)N[C@@H](Cc1c[nH]c2ccccc12)C(=O)N[C@@H](CC(C)C)C(=O)N[C@@H](CC(C)C)C(=O)N[C@@H](CO)C(=O)N[C@H](C(=O)O)[C@@H](C)O)C(=O)O)C(=O)O)C(=O)O)C(=O)O [Example 3]
